{
  "source": "patent US20240002846A1",
  "about": "“COMPOSITIONS AND METHODS FOR THE DIAGNOSIS AND TREATMENT OF ITCH” (Duke University, priority 2020, published 2024)",
  "key": {"[1]": {"test_system": "rat TRPV4 mutations (R746C, R746G, R746D, K754G, R757G, R774G, and W776G)", "experiment": "Ca2+ imaging in HEK cells transfected with rat TRPV4 mutations", "assay_type": "cell-based", "procedure": "Cell culture and transfection. HEK293 cells (ATCC® CRL-1573) were cultured on poly-D-lysine coated coverslips in 24-well plate containing DMEM media with high-Glucose (Gibco, Gaithersburg, MD) supplemented with 10% fetal bovine serum (FBS, HyClone Laboratories, Logan, UT) and 100 U/mL of penicillin/streptomycin (Gibco, Gaithersburg, MD). Cell cultures were maintained with 5% of CO2 in a humidified incubator at 37° C. HEK cells were transfected with rat or human wild type or mutant TRPV4 channels with EGFP or YFP coupled to their C-termini (1.5 μg of plasmid for excised patch clamp and Ca^2+ imaging and 200 ng for single-channel experiments). The jetPEI™ Polyplus transfection reagent (Polyplus Transfection, New York, NY) for electrophysiology or Lipofectamine™ 2000 Reagent (Invitrogen, Waltham, MA) for Ca^2+ imaging were used for transfections per manufacturer's instructions as previously described (Chen et al. Pain 2014, 155, 2662-2672; Morales-Lazaro et al. Nat. Commun. 2016, 7, 13092). To investigate whether miR-146a can directly activate TRPV1 channels or indirectly via TLRs, HEK293 cells were transfected with rTRPV1 or co-transfected rTRPV1 with rTLR7, rTLR2, or rTLR6 (Addgene, Watertown, MA) for Ca^2+ imaging assay. Control cells were transfected with GFP or YFP.\nSite-directed mutagenesis of TRPV4 channels. TRPV4 sequences of multiple species were aligned using Clustal Omega program. Site-directed mutagenesis to generate point mutations in rat and human TRPV4 channels were carried out using Phusion DNA polymerase enzyme (Salazar et al. Nat. Struct. Mol. Biol. 2009, 16, 704-710; Rosenbaum et al. Neuron 2002, 33, 703-713; Hsieh et al. Methods Mol. Biol. 2013, 978, 173-186), with final sequencing to check for presence of the induced mutation. We introduced the following mutations into the rTRPV4 or hTRPV4 channel: R746C, R746G, R746D, K754G, R757G, R774G, and W776G.\nIn vitro and ex vivo Ca^2+ imaging. […] Ratios of emissions were acquired at 0.5 Hz. ΔR/R0 was determined as the fraction of the increase of a given ratio over baseline ratio divided by baseline ratio. […]"}, "hTRPV4-R746C": {"biological_target": "T1, hTRPV4-R746C (Homo sapiens, UniProt Q9HBA0, R746C)", "T1 construct": "expressed in transfected cells; host or cells: HEK293", "T1 sequence (Q9HBA0 whole entry R746C)": "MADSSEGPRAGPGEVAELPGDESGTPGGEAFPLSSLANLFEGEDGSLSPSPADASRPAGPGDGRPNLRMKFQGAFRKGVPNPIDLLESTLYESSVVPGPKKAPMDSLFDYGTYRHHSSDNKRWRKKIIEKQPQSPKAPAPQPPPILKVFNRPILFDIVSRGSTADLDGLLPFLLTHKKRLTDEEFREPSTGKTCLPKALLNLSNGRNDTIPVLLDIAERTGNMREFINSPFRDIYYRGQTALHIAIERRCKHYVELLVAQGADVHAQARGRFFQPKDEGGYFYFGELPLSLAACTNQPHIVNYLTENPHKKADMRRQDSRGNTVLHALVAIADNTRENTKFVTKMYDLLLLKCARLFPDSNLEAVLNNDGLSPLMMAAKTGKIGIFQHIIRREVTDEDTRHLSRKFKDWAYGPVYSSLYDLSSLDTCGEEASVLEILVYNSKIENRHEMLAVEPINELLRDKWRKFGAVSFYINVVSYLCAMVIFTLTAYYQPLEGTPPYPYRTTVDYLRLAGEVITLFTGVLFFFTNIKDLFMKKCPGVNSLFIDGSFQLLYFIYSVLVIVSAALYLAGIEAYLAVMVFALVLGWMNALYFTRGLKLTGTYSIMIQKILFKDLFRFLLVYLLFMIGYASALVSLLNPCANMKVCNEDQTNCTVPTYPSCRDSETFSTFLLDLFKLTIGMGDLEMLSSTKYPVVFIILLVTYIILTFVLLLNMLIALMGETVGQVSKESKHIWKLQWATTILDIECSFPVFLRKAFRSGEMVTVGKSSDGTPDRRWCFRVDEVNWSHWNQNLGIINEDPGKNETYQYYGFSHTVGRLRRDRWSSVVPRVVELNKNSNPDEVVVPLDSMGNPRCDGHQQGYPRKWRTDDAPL", "experiment": "Inside-out patch-clamp, hTRPV4-R746C", "assay_type": "biochemical", "settings": "5 μM LPC 18:1", "procedure": "(§1) Cell culture and transfection. HEK293 cells (ATCC® CRL-1573) were cultured on poly-D-lysine coated coverslips in 24-well plate containing DMEM media with high-Glucose (Gibco, Gaithersburg, MD) supplemented with 10% fetal bovine serum (FBS, HyClone Laboratories, Logan, UT) and 100 U/mL of penicillin/streptomycin (Gibco, Gaithersburg, MD). Cell cultures were maintained with 5% of CO2 in a humidified incubator at 37° C. HEK cells were transfected with rat or human wild type or mutant TRPV4 channels with EGFP or YFP coupled to their C-termini (1.5 μg of plasmid for excised patch clamp and Ca^2+ imaging and 200 ng for single-channel experiments). […]\n(§2) Electrophysiology. Currents were recorded using the inside-out configuration of the patch-clamp technique (Hamill et al. Pflugers Arch. 1981, 391, 85-100). […] Mean current values in response to GSK1016790A or LPC 18:1 were measured after channel activation had reached the steady-state (˜3 min). […] Currents were low-pass filtered at 2 kHz and sampled at 10 kHz with an EPC 10 amplifier (HEKA Elektronik) and were plotted and analyzed with Igor Pro (Wavemetrics Inc.)."}, "rTRPV4": {"biological_target": "rTRPV4 (Rattus norvegicus, UniProt Q9ERZ8)", "sequence (Q9ERZ8 whole entry)": "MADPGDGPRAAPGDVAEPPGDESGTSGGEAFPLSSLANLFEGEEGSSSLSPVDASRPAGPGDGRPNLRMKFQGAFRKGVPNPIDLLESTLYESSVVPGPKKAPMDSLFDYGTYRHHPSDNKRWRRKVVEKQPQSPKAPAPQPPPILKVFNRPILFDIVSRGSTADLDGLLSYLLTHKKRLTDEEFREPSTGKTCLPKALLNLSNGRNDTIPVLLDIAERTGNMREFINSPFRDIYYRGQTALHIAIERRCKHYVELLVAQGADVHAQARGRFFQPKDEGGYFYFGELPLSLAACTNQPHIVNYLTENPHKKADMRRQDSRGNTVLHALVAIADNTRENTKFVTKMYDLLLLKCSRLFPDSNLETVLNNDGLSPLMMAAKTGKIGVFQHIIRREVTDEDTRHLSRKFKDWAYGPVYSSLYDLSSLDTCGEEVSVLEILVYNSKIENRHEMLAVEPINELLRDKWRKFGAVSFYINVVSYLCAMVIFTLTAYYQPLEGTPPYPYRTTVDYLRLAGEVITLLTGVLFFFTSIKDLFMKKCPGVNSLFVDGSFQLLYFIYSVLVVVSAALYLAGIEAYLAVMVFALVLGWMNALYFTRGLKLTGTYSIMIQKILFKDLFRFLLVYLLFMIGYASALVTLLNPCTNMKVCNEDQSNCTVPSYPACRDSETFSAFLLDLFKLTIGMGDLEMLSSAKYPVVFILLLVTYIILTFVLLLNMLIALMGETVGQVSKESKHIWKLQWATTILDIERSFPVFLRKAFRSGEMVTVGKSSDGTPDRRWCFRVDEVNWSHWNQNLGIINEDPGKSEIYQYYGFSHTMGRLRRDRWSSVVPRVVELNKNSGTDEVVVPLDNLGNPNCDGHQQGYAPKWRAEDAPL", "experiment": "Inside-out patch-clamp, HEK cells transfected with rTRPV4", "assay_type": "biochemical", "parameters": "expressed in transfected cells; host or cells: HEK293", "settings": "5 μM LPC 18:1, WT-rTRPV4, inside-out patches", "procedure": "as §1, §2"}},
  "note": "Values joined by “and” are separate entries in the source; they are usually repeats but may differ in a detail not shown here. Identical values can stand only once. Like-named read-outs stand apart in the source and are kept apart here.",
  "data": [
    {"substance": "LPC 18:1", "values": [
      {"measurement": "Ca2+ signal induced by 10 μM LPC 18:1 in TRPV4 mutants vs rTRPV4", "setting": "[1]", "result": "drastically reduced"},
      {"measurement": "Ca2+ signal induced by 10 μM LPC 18:1 in TRPV4 mutants vs rTRPV4", "setting": "[1]; listed as LPC (18:1)", "result": "significantly reduced potency"},
      {"measurement": "average activation of currents, normalized to 1 μM GSK101", "setting": "hTRPV4-R746C", "result": "11±4", "unit": "%"},
      {"measurement": "average activation of currents, normalized to 1 μM GSK101", "setting": "rTRPV4", "result": "54±4", "unit": "%"},
      {"measurement": "average activation of currents, normalized to 1 μM GSK101", "setting": "rTRPV4; listed as LPC (18:1)", "result": "54% and ~50%"}
    ]}
  ]
}
